The text below walks through data of article PMC5330258 (Journal of medicinal chemistry, 2016).

For data set [1] the following is noted: cited from earlier work.
For a further data set, the target named is T1, VDR (Homo sapiens, UniProt P11473).
T1 sequence (P11473 1-427): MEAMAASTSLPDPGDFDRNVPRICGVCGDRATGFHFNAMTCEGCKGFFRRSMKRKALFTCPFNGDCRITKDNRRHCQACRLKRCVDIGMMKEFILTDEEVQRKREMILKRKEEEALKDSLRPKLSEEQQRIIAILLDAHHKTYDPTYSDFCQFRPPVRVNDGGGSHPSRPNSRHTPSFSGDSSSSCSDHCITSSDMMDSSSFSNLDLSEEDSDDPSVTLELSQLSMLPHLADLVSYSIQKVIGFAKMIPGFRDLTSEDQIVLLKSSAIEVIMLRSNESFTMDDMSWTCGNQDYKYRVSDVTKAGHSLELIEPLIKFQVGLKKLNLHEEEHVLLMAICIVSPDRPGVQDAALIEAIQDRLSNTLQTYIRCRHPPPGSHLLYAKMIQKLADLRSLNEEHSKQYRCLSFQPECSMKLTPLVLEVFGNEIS
In words: Lentiviral VDRE-luciferase transcriptional reporter assay. Type of data set: cell-based. As to conditions: for VDR activation (in words): concentration up to 1000 nM, all three cell lines (HaCaT, Caco-2, Jurkat); for EC50: 24 h, NS: no significance. In general terms: In a reporter assay the amount or activity of a reporter protein is the signal.

A further data set relates to SKMEL-188 melanoma cells. Put plainly: Antiproliferative activity on melanoma cells. Type of data set: cell-based. Conditions: compared with parent compounds and 1,25(OH)2D3.

Usually EC50 stands for the concentration that produces a half-maximal response.

Read-outs that look alike come from different tables or passages of the source.

Turning to `C=C1/C(=C\C=C2/CCC[C@]3(C)[C@@H]([C@H](C)CCCC(C)(C)O)CC[C@@H]23)C[C@@H](O)C[C@@H]1O` [1,25(OH)2D3, 1α,25-dihydroxyvitamin D3], the Calcemic effect entry in data set [1] (rats and mice) is listed as “causes hypercalcemia”.

Take `C=C1CC[C@H](O)C/C1=C/C=C1\CCC[C@@]2(C)[C@H]1CC[C@@H]2[C@@](C)(O)C[C@@H](O)CC(C)C` [17b, 20S,23S-dihydroxyvitamin D3]: the “VDR activation (in words)” value at VDR is reported as “unable to activate VDR”. For the same compound, the EC50 at VDR (read-out: VDRE activation (EC50, nM) Caco-2, Caco-2 cells) is more than 1000 nM; at VDR (read-out: VDRE activation (EC50, nM) HaCaT, HaCaT cells) it was more than 1000 nM; at VDR (read-out: VDRE activation (EC50, nM) Jurkat, Jurkat cells), more than 1000 nM.

For `C=C1CC[C@H](O)C/C1=C/C=C1\CCC[C@@]2(C)[C@H]1CC[C@@H]2[C@@](C)(O)CCCC(C)C` [20S(OH)D3, 20S-hydroxyvitamin D3], the Calcemic effect result in data set [1] (doses up to 30 μg/kg in mice) was “noncalcemic”.

Turning to `C=C1CC[C@H](O)C/C1=C/C=C1\CCC[C@@]2(C)[C@H]1CC[C@@H]2[C@@](C)(O)C[C@H](O)CC(C)C` [17a, 20S,23R(OH)2D3], the “VDR activation (in words)” value at VDR was “strong stimulatory effect”.

With `C=C1/C(=C\C=C2/CCC[C@@]3(C)[C@H]2CC[C@@H]3[C@@](C)(O)C[C@@H](O)CC(C)C)C[C@@H](O)C[C@@H]1O` [18b, 1α,20S,23S(OH)3D3], the “Maximal inhibition values (in words)” value with SKMEL-188 melanoma cells was “higher maximal inhibition values”.

For the compound `C=C1/C(=C\C=C2/CCC[C@@]3(C)[C@H]2CC[C@@H]3[C@@](C)(O)C[C@H](O)CC(C)C)C[C@@H](O)C[C@@H]1O` [18a, 1α,20S,23R(OH)3D3], the “EC50 in Jurkat cells relative to that of 18b” value at VDR (Jurkat cells) is reported as “six times lower”. Besides, in the data set with SKMEL-188 melanoma cells, the “Maximal inhibition values (in words)” value was “higher maximal inhibition values”.
